What was measured:
Type in all cases: functional, Homo sapiens
TERT-RPE1 = assay: (§1) Here: values are normalized to the negative (DMSO; defined as 0% autophagy induction) and positive (250nM Torin1; mTOR inhibitor; defined as maximal inducer of autophagy = 100%) control compounds and represented as % of autophagy induction. […] The impact of autophagy induction on cells is complex and depends on the affected target. As such, the magnitude of a phenotype may not be equally mirrored in the %-value of autophagy induction and vice versa. The dynamics of the induction may indicate the mode of activation: e.g. activation via phosphorylation or a signaling cascade may occur fast, while activation via transcription factors may take considerably longer. […] Of note, treatment concentrations may be sub-optimal for specific compounds, leading to false negative annotations.; details: Culturing Media DMEM/F12 (1:1), 1 % Penicillin/Streptomycin, 10% Fetal bovin serum Add-On: No, Screening Media Control DMEM/F12 (1:1), Screening Media Samples DMEM/F12 (1:1)
U2OS [1] = assay: as §1; details: Culturing Media DMEM, 1 % Penicillin/Streptomycin, 10% Fetal bovin serum Add-On: No, Screening Media Control DMEM, Screening Media Samples DMEM
U2OS [2] = assay: as §1; details: Culturing Media DMEM, 1 % Penicillin/Streptomycin, 10% Fetal bovin serum Add-On: No, Screening Media Control DMEM, Screening Media Samples DMEM; remark: listed apart in the source
[3] = Compound Concentration 0.5 uM, Timepoint 12 hours
[4] = Compound Concentration 0.5 uM, Timepoint 24 hours
[5] = Compound Concentration 0.5 uM, Timepoint 36 hours
[6] = Compound Concentration 0.5 uM, Timepoint 60 hours
[7] = Compound Concentration 2 uM, Timepoint 12 hours
[8] = Compound Concentration 2 uM, Timepoint 24 hours
[9] = Compound Concentration 2 uM, Timepoint 36 hours
[10] = Compound Concentration 2 uM, Timepoint 60 hours
[11] = Compound Concentration 10 uM, Timepoint 12 hours
[12] = Compound Concentration 10 uM, Timepoint 24 hours
[13] = Compound Concentration 10 uM, Timepoint 36 hours
[14] = Compound Concentration 10 uM, Timepoint 60 hours

SMILES	autophagy induction (TERT-RPE1; [3])	autophagy induction (TERT-RPE1; [4])	autophagy induction (TERT-RPE1; [5])	autophagy induction (TERT-RPE1; [6])	autophagy induction (TERT-RPE1; [7])	autophagy induction (TERT-RPE1; [8])	autophagy induction (TERT-RPE1; [9])	autophagy induction (TERT-RPE1; [10])	autophagy induction (TERT-RPE1; [11])	autophagy induction (TERT-RPE1; [12])	autophagy induction (TERT-RPE1; [13])	autophagy induction (TERT-RPE1; [14])	autophagy induction (U2OS [1]; [3])	autophagy induction (U2OS [1]; [4])	autophagy induction (U2OS [1]; [5])	autophagy induction (U2OS [1]; [6])	autophagy induction (U2OS [1]; [7])	autophagy induction (U2OS [1]; [8])	autophagy induction (U2OS [1]; [9])	autophagy induction (U2OS [1]; [10])	also measured
C[C@]1(C(=O)N(CCCC(=O)O)Cc2cccc(Cl)c2)CCN1C(=O)c1csc2ccccc12 [GLPG-0974]	-9.58%	-12.1708%	-12.5657%	-12.3909%	-4.812%	-8.05%	-10.5216%	-11.4009%	-6.234%	-7.969%	-9.743%	-14.0611%	2.89%	1.055%	-0.2915%	0.8021%	5.8948%	0.1613%	-0.9761%	-1.363%	autophagy induction (U2OS [1]; [11]): 4.366%; autophagy induction (U2OS [1]; [12]): 0.7536%; autophagy induction (U2OS [1]; [13]): -0.03596%; autophagy induction (U2OS [1]; [14]): 0.5874%; autophagy induction (U2OS [2]; [3]): -10.0746%; autophagy induction (U2OS [2]; [4]): -10.8247%; autophagy induction (U2OS [2]; [5]): -4.098%; autophagy induction (U2OS [2]; [6]): -4.538%; autophagy induction (U2OS [2]; [7]): 5.378%; autophagy induction (U2OS [2]; [8]): 3.105%; autophagy induction (U2OS [2]; [9]): 6.198%; autophagy induction (U2OS [2]; [10]): 1.696%; autophagy induction (U2OS [2]; [11]): 3.852%; autophagy induction (U2OS [2]; [12]): 1.348%; autophagy induction (U2OS [2]; [13]): 0.8582%; autophagy induction (U2OS [2]; [14]): -7.082%
CCc1cc(C(C)=O)c(O)cc1OCCCCCC(C)(C)c1nn[nH]n1 [LY-255283]	-9.9842%	-11.9426%	-14.7708%	-17.4457%	-8.34%	-9.195%	-15.7799%	-19.0275%	-6.621%	-4.037%	-5.452%	-5.811%	3.867%	-0.4862%	-0.9692%	-0.6256%	7.835%	0.4992%	-1.36%	0.1348%	autophagy induction (U2OS [1]; [11]): 10.6288%; autophagy induction (U2OS [1]; [12]): 4.072%; autophagy induction (U2OS [1]; [13]): 1.093%; autophagy induction (U2OS [1]; [14]): 0.5552%; autophagy induction (U2OS [2]; [3]): 7.95%; autophagy induction (U2OS [2]; [4]): 0.1788%; autophagy induction (U2OS [2]; [5]): 0.4616%; autophagy induction (U2OS [2]; [6]): 2.676%; autophagy induction (U2OS [2]; [7]): 6.9255%; autophagy induction (U2OS [2]; [8]): 1.248%; autophagy induction (U2OS [2]; [9]): 3.296%; autophagy induction (U2OS [2]; [10]): 1.486%; autophagy induction (U2OS [2]; [11]): -12.1559%; autophagy induction (U2OS [2]; [12]): -5.674%; autophagy induction (U2OS [2]; [13]): -8.912%; autophagy induction (U2OS [2]; [14]): -14.6191%

From ChEMBL document CHEMBL5724696, “Autophagy assay results for EUbOPEN Chemogenomics Library” (2024)
